Results taken from patent US20230340011A1 (Asteroid Therapeutics, priority 2022, published 2023).

Biological target: SREBP-2 (Homo sapiens (Human), UniProt Q12772)
Assay: In vitro assay SREBP-2: PathHunter U2OS SREBP-2 Nuclear Translocation Cell Line, U18666A-stimulated
Format: cell-based
Details: PathHunter U2OS SREBP-2 nuclear translocation cells, U18666A 10 μM, overnight (16 hours)

Compound | IC50 [nM]
CNC(=O)c1ccncc1O[C@@H](C)[C@H]1CC[C@H]2[C@@H]3CC=C4C[C@@H](O)CC[C@]4(C)[C@H]3CC[C@]12C [Example 265, 3-((S)-1-((3S,8S,9S,10R,13S,14S,17S)-3-hydroxy-10,13-dimethyl-2,3,4,7,8,9,10,11,12,13,14,15,16,17-tetradecahydro-1H-cyclopenta[a]phenanthren-17-yl)ethoxy)-N-methylisonicotinamide] | 1000 to 10000
CNC(=O)c1cncc(O[C@@H](C)[C@H]2CC[C@H]3[C@@H]4CC=C5C[C@@H](O)CC[C@]5(C)[C@H]4CC[C@]23C)c1 [Example 266, 5-((S)-1-((3S,8S,9S,10R,13S,14S,17S)-3-hydroxy-10,13-dimethyl-2,3,4,7,8,9,10,11,12,13,14,15,16,17-tetradecahydro-1H-cyclopenta[a]phenanthren-17-yl)ethoxy)-N-methylnicotinamide] | 250 to 1000
CNC(=O)c1ncccc1O[C@@H](C)[C@H]1CC[C@H]2[C@@H]3CC=C4C[C@@H](O)CC[C@]4(C)[C@H]3CC[C@]12C [Example 267, 3-((S)-1-((3S,8S,9S,10R,13S,14S,17S)-3-hydroxy-10,13-dimethyl-2,3,4,7,8,9,10,11,12,13,14,15,16,17-tetradecahydro-1H-cyclopenta[a]phenanthren-17-yl)ethoxy)-N-methylpicolinamide] | 250 to 1000
C[C@H](Oc1cnccc1CO)[C@H]1CC[C@H]2[C@@H]3CC=C4C[C@@H](O)CC[C@]4(C)[C@H]3CC[C@]12C [Example 268, (3S,8S,9S,10R,13S,14S,17S)-17-((S)-1-((4-(hydroxymethyl)pyridin-3-yl)oxy)ethyl)-10,13-dim ethyl-2,3,4,7,8,9,10,11,12,13,14,15,16,17-tetradecahydro-1H-cyclopenta[a]phenanthren-3-ol] | 250 to 1000
C[C@H](Oc1cncc(CO)c1)[C@H]1CC[C@H]2[C@@H]3CC=C4C[C@@H](O)CC[C@]4(C)[C@H]3CC[C@]12C [Example 269, (3S,8S,9S,10R,13S,14S,17S)-17-((S)-1-((5-(hydroxymethyl)pyridin-3-yl)oxy)ethyl)-10,13-dim ethyl-2,3,4,7,8,9,10,11,12,13,14,15,16,17-tetradecahydro-1H-cyclopenta[a]phenanthren-3-ol] | 250 to 1000
C[C@H](Oc1cccnc1CO)[C@H]1CC[C@H]2[C@@H]3CC=C4C[C@@H](O)CC[C@]4(C)[C@H]3CC[C@]12C [Example 270, (3S,8S,9S,10R,13S,14S,17S)-17-((S)-1-((2-(hydroxymethyl)pyridin-3-yl)oxy)ethyl)-10,13-dim ethyl-2,3,4,7,8,9,10,11,12,13,14,15,16,17-tetradecahydro-1H-cyclopenta[a]phenanthren-3-ol] | 250 to 1000
Cc1ccncc1O[C@@H](C)[C@H]1CC[C@H]2[C@@H]3CC=C4C[C@@H](O)CC[C@]4(C)[C@H]3CC[C@]12C [Example 271, (3S,8S,9S,10R,13S,14S,17S)-10,13-dimethyl-17-((S)-1-((4-methylpyridin-3-yl)oxy)ethyl)-2,3,4,7,8,9,10,11,12,13,14,15,16,17-tetradecahydro-1H-cyclopenta[a]phenanthren-3-ol] | 250 to 1000
Cc1cncc(O[C@@H](C)[C@H]2CC[C@H]3[C@@H]4CC=C5C[C@@H](O)CC[C@]5(C)[C@H]4CC[C@]23C)c1 [Example 272, (3S,8S,9S,10R,13S,14S,17S)-10,13-dimethyl-17-((S)-1-((5-methylpyridin-3-yl)oxy)ethyl)-2,3,4,7,8,9,10,11,12,13,14,15,16,17-tetradecahydro-1H-cyclopenta[a]phenanthren-3-ol] | < 250
Cc1ccc(O[C@@H](C)[C@H]2CC[C@H]3[C@@H]4CC=C5C[C@@H](O)CC[C@]5(C)[C@H]4CC[C@]23C)cn1 [Example 273, (1S,3aS,3bS,7S,9aR,9bS,11aS)-9a,11a-dimethyl-1-[(1S)-1-[(6-methylpyridin-3-yl)oxy]ethyl]-1H,2H,3H,3aH,3bH,4H,6H,7H,8H,9H,9aH,9bH,10H,11H,11aH-cyclopenta[a]phenanthren-7-ol] | < 250
CC(=O)N1CCC(C(=O)N(C)CC[C@@H](C)[C@H]2CC[C@H]3[C@@H]4CC=C5C[C@@H](O)CC[C@]5(C)[C@H]4CC[C@]23C)CC1 [Example 294, 1-acetyl-N—((R)-3-((3S,8S,9S,10R,13R,14S,17R)-3-hydroxy-10,13-dimethyl-2,3,4,7,8,9,10,11,12,13,14,15,16,17-tetradecahydro-1H-cyclopenta[a]phenanthren-17-yl)butyl)-N-methylpiperidine-4-carboxamide] | 250 to 1000
CC(=O)N(C)C1CN(C(=O)CC[C@@H](C)[C@H]2CC[C@H]3[C@@H]4CC=C5C[C@@H](O)CC[C@]5(C)[C@H]4CC[C@]23C)C1 [Example 325, N-(1-((R)-4-((3S,8S,9S,10R,13R,14S,17R)-3-hydroxy-10,13-dimethyl-2,3,4,7,8,9,10,11,12,13,14,15,16,17-tetradecahydro-1H-cyclopenta[a]phenanthren-17-yl)pentanoyl)azetidin-3-yl)-N-methylacetamide] | 250 to 1000
CC(=O)NC1CN(C(=O)CC[C@@H](C)[C@H]2CC[C@H]3[C@@H]4CC=C5C[C@@H](O)CC[C@]5(C)[C@H]4CC[C@]23C)C1 [Example 326, N-{1-[(4R)-4-[(1R,3aS,3bS,7S,9aR,9bS,11aR)-7-hydroxy-9a,11a-dimethyl-1H,2H,3H,3aH,3bH,4H,6H,7H,8H,9H,9aH,9bH,10H,11H,11aH-cyclopenta[a]phenanthren-1-yl]pentanoyl]azetidin-3-yl}acetamide] | 250 to 1000
CC(=O)N1CCC2(C1)CN(C(=O)CC[C@@H](C)[C@H]1CC[C@H]3[C@@H]4CC=C5C[C@@H](O)CC[C@]5(C)[C@H]4CC[C@]13C)C2 [Example 327, (4R)-4-[(1R,3aS,3bS,7S,9aR,9bS,11aR)-7-hydroxy-9a,11a-dimethyl-1H,2H,3H,3aH,3bH,4H,6H,7H,8H,9H,9aH,9bH,10H,11H,11aH-cyclopenta[a]phenanthren-1-yl]-1-{6-acetyl-2,6-diazaspiro[3.4]octan-2-yl}pentan-1-one] | 250 to 1000
CC(=O)N1CC2(C1)CN(C(=O)CC[C@@H](C)[C@H]1CC[C@H]3[C@@H]4CC=C5C[C@@H](O)CC[C@]5(C)[C@H]4CC[C@]13C)C2 [Example 328, (4R)-4-[(1R,3aS,3bS,7S,9aR,9bS,11aR)-7-hydroxy-9a,11a-dimethyl-1H,2H,3H,3aH,3bH,4H,6H,7H,8H,9H,9aH,9bH,10H,11H,11aH-cyclopenta[a]phenanthren-1-yl]-1-{6-acetyl-2,6-diazaspiro[3.3]heptan-2-yl}pentan-1-one] | 250 to 1000
C#CC1(OC)CCN(C(=O)CC[C@@H](C)[C@H]2CC[C@H]3[C@@H]4CC=C5C[C@@H](O)CC[C@]5(C)[C@H]4CC[C@]23C)CC1 [Example 330, (R)-1-(4-ethynyl-4-methoxypiperidin-1-yl)-4-((3S,8S,9S,10R,13R,14S,17R)-3-hydroxy-10,13-dimethyl-2,3,4,7,8,9,10,11,12,13,14,15,16,17-tetradecahydro-1H-cyclopenta[a]phenanthren-17-yl)pentan-1-one] | < 250
